Reference: patent US7494714B2, “Surfaces that resist the adsorption of biological species” (President & Fellows of Harvard College, priority 2000, dated 2009)

How the values were obtained:
[1] = molecular target: T1, fibrinogen (Bos taurus, UniProt P02672+P02676+P12799); assay: SPR adsorption of fibrinogen to SAMs / grafted polymer films; format: binding, bovine; settings: mixed SAM —CONRR′/—CO2H; for % MLfib 3 min: 1 mg/mL fibrinogen flowed 3 min, relative to —CONH(CH2)10CH3/—CO2H SAM; for % MLfib 30 min: 1 mg/mL fibrinogen flowed 30 min
T1 sequence (P02672 20-615): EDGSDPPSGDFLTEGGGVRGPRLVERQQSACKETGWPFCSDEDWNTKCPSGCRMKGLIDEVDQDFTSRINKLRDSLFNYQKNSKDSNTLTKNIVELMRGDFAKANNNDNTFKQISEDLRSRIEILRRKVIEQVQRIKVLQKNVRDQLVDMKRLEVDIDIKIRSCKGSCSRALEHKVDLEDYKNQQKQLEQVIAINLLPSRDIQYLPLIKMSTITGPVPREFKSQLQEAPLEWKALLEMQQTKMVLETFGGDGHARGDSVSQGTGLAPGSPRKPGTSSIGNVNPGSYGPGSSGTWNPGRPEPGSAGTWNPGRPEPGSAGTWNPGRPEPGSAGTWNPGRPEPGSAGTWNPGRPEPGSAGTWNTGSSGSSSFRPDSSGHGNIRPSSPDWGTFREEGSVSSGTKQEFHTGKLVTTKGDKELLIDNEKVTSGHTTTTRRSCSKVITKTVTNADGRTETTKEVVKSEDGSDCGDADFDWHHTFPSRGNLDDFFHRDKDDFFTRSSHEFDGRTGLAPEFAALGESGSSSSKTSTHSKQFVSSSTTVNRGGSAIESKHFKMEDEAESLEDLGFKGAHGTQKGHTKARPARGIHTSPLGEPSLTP
T1 sequence (P02676 1-468): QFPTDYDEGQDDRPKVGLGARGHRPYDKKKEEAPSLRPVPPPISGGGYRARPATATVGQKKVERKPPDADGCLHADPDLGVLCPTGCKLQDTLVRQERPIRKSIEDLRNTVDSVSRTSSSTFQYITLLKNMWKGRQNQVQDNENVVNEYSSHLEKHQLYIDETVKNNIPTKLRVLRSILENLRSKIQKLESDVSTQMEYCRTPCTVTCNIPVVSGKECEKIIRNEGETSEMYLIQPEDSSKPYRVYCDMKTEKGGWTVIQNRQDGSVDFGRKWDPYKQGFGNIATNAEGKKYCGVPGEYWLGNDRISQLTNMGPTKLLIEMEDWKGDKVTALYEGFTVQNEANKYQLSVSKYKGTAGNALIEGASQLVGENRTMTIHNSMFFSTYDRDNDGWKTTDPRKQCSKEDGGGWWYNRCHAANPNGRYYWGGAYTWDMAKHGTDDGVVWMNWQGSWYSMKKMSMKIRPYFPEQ
T1 sequence (P12799 25-444): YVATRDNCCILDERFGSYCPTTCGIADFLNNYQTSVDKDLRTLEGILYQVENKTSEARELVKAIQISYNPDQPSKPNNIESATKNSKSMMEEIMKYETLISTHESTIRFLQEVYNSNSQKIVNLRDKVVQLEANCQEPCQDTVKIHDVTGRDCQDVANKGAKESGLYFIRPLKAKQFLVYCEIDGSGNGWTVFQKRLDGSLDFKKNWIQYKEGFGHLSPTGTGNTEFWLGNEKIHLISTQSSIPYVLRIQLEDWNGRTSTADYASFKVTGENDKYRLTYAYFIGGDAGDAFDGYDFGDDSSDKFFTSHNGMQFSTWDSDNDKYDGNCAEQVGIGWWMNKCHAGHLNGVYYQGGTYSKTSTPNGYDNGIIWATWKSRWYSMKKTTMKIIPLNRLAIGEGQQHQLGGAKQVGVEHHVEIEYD

[2] = molecular target: lysozyme (Gallus gallus, UniProt P00698); assay: SPR adsorption of lysozyme to SAMs / grafted polymer films; format: binding; settings: mixed SAM —CONRR′/—CO2H; for % MLlys 3 min: 1 mg/mL lysozyme flowed 3 min; for % MLlys 30 min: 1 mg/mL lysozyme flowed 30 min
lysozyme, sequence (P00698 19-147): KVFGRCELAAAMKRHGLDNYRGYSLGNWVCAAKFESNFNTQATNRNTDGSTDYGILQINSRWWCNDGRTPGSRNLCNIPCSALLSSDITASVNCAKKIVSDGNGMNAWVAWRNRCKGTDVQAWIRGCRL

[3] = Contact angle of deionized water under cyclooctane; format: physicochemical; settings: mixed SAM

Molecule | % Fiboff (percent decrease in adsorbed protein during 10 minute PBS wash) [1] [%] | dR/dton fibrinogen (maximum initial rate of adsorption) [1] [RU/sec] | % MLfib 3 min [1] [%] | % MLfib 30 min [1] [%] | % Lysoff (percent decrease in adsorbed protein during 10 minute PBS wash) [2] [%] | dR/dton lysozyme (maximum initial rate of adsorption) [2] [RU/sec] | % MLlys 3 min [2] [%] | % MLlys 30 min [2] [%] | θco sessile [3] [degrees]
CNCCN(C)C | 13 ± 2 | 140 ± 40 | 23 ± 4 | 40 ± 2 | 300 ± 30 | 400 ± 200 | 1.9 ± 0.1 | 14 ± 2 | 49
CNCCN(C)C(=O)N(C)C | 15 ± 2 | 60 ± 30 | 5.9 ± 0.2 | 25 ± 1 | 160 ± 10 | 670 ± 50 | 2.1 ± 0.2 | 11 ± 0.5 | 62
CNCCN(C)C(=O)OC | 20 ± 2 | 330 ± 70 | 26 ± 0.2 | 58 ± 0.3 | 150 ± 2 | 670 ± 50 | 4.3 ± 0.2 | 43 ± 3 | 70
C[N+](C)(C)CCN.[Cl-] | 6.2 ± 1 | 300 ± 200 | 17 ± 2 | 25 ± 4 | 95 ± 7 | 140 ± 40 | 3.5 ± 0.2 | 3.9 ± 0.7 | 31
H(CH3)NCH2CH(OCH3)2 | 15 ± 4 | 510 ± 400 | 16 ± 2 | 36 ± 1 | 190 ± 2 | 740 ± 300 | 4.6 ± 2 | 19 ± 5 | 70
CC(=O)CCN | 16 ± 1 | 1400 ± 260 | 66 ± 0.3 | 74 ± 0.3 | 150 ± 10 | 2700 ± 400 | 31 ± 6 | 71 ± 5 | 70
CNCCN(C)P(=O)(N(C)C)N(C)C | 19 ± 1 | 120 ± 20 | 0.8 ± 0.1 | 4.3 ± 0.6 | 660 ± 15 | 70 ± 30 | 0.2 ± 0.2 | 0.3 ± 0.2 | 63
CN1CCNCC1 | 1.0 ± 0.2 | 50 ± 30 | 8.2 ± 1 | 16 ± 0.2 | 170 ± 20 | 60 ± 40 | 1.1 ± 0.2 | 1.0 ± 0.4 | 49
